Reference: patent US20230000853A1, “PHARMACEUTICAL COMPOSITION CONTAINING NITROXOLINE, NITROXOLINE TABLET, PREPARATION METHOD THEREFOR AND USE THEREOF” (JIANGSU YAHONG MEDITECH CO., LTD., priority 2019, published 2023)

Legend:
[1] = Particle size determination by Malvern laser particle size analyzer, wet method; type: physicochemical; details: pulverized raw material; dispersant 0.5% aqueous Tween 80
Protocol: The initial particle size D90 of the raw material nitroxoline or nitroxoline lysine salt was more than 100 μm. The raw material was pulverized with the mechanical mill to obtain the raw material having the particle size I, II, III or V in the following Table 1. The raw material was pulverized with the jet mill to obtain the raw material having the particle size IV in the following Table 1.
Determination was carried out on the Malvern laser particle size analyzer MS2000 by wet method according to the operation requirements of the instrument, the dispersant was an aqueous Tween 80 solution, and the mass fraction of Tween 80 in the aqueous solution was 0.5%.

[2] = Solubility and dissolution of nitroxoline in aqueous media; type: physicochemical; details: 0.1 mol/L hydrochloric acid, water and phosphate buffer (pH 6.8) at 37° C.
Source text: In addition, the resulting nitroxoline tablets have uniform content, narrow variation range in hardness, and good fluidity and compressibility.

[3] = low solubility and high permeability; cited from earlier work
[4] = molecular target: T1, methionine aminopeptidase MetAP2 (Homo sapiens, UniProt P50579); details: vascular endothelial cells; cited from earlier work
T1 construct: host or cells: vascular endothelial cells

[5] = molecular target: T2, silence information regulator 2-related enzyme SIRT1 (Homo sapiens, UniProt Q96EB6); details: vascular endothelial cells; cited from earlier work
T2 construct: host or cells: vascular endothelial cells
T2 sequence (Q96EB6 1-747): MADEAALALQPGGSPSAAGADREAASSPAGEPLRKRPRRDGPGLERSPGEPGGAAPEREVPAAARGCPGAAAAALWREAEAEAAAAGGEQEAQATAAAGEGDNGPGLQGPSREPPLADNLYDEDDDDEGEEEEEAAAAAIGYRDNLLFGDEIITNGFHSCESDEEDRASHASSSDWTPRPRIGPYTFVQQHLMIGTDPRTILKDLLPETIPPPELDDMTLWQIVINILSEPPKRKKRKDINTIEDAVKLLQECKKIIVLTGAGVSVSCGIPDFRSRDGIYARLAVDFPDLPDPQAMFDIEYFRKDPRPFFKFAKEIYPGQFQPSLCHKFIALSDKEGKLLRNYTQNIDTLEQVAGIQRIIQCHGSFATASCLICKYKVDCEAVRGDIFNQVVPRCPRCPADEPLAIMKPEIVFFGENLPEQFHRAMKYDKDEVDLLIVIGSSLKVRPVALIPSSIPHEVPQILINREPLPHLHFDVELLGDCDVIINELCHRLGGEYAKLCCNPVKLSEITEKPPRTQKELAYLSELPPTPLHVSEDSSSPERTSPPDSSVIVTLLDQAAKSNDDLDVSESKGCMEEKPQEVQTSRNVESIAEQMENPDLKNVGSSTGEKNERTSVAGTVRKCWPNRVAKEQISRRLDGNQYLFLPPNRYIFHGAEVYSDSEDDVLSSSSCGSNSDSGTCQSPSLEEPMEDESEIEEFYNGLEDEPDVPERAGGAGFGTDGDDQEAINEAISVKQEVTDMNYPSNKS

T1 sequence (P50579 whole entry): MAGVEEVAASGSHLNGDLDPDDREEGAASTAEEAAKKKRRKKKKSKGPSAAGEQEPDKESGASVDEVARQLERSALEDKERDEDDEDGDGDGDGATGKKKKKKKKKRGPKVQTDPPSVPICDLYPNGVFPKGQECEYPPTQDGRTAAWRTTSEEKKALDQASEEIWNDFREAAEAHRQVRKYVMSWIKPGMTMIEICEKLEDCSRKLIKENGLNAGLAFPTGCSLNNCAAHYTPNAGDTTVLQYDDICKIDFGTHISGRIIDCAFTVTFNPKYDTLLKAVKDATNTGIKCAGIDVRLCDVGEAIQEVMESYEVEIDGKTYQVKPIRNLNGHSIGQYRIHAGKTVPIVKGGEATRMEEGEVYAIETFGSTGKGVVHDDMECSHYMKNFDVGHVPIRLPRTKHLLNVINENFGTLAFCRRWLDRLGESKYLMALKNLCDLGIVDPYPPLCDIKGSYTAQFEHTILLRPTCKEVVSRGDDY

| SMILES | Particle size D10 [1] [μm] | Particle size D50 [1] [μm] | Particle size D90 [1] [μm] | Solubility and dissolution [2] | BCS class [3] | Inhibition of MetAP2 [4] | Inhibition of SIRT1 [5] |
| --- | --- | --- | --- | --- | --- | --- | --- |
| O=[N+]([O-])c1ccc(O)c2ncccc12 [I (Nitroxoline), Nitroxoline] | 5.66 | 33.60 | 99.31 | – | – | – | – |
| O=[N+]([O-])c1ccc(O)c2ncccc12 [II (Nitroxoline), Nitroxoline] | 3.99 | 14.95 | 70.58 | – | – | – | – |
| O=[N+]([O-])c1ccc(O)c2ncccc12 [III (Nitroxoline), Nitroxoline] | 3.44 | 11.02 | 42.55 | – | – | – | – |
| O=[N+]([O-])c1ccc(O)c2ncccc12 [IV (Nitroxoline), Nitroxoline] | 0.12 | 4.58 | 12.61 | – | – | – | – |
| NCCCC[C@H](N)C(=O)O.O=[N+]([O-])c1ccc(O)c2ncccc12 [V (Nitroxoline lysine salt), Nitroxoline lysine salt] | 3.67 | 10.88 | 43.29 | – | – | – | – |
| O=[N+]([O-])c1ccc(O)c2ncccc12 [nitroxoline, 5-nitro-8-hydroxyquinoline] | – | – | – | low solubility and slow dissolution | BCS class II | inhibit | inhibit |
